Like-named read-outs stand apart in the source and are kept apart here.
Biological target: T1, TrkA kinase (Homo sapiens, UniProt P04629)
T1 construct: purchased Upstate, USA
Test: In vitro TrkA inhibitory activity using TR-FRET assay
Assay type: biochemical
Method: Compounds were screened in the TR-FRET assay with TrkA kinase. 5 ng of TrkA [Upstate, USA] kinase was used for assay. The compound was incubated with the kinase for 30 minutes at 20-35° C. After the incubation, substrate mix [40 nM Ultra light poly GT (Perkin Elmer, USA) and 500 μM ATP] was added. The above reaction was stopped by the addition of 40 mM EDTA after 30 minutes. The Eu-labelled antiphospho-tyrosine antibody [Perkin Elmer, USA] was added at 0.5 nM and the fluorescence emission at 615 nm/665 nm [excitation at 340 nm] was measured. The compounds were initially screened at 100 nM, 1 μM and 10 μM concentrations. The potent compounds with >25% inhibition at 1 μM of TrkA were taken for the full dose response studies. The final DMSO concentration in the assay was […]. For IC50 determination, ⅓^rd serial dilution was made from the 20 mM DMSO stock solution. 2 μl of these were transferred to the test wells containing 20 μl reaction mixture [Total reaction volume 22 μl]. The fluorescence was measured in Perkin Elmer Wallac 1420 Multilabel Counter Victor 3. The IC50 was determined by fitting the dose response data to a sigmoidal curve fitting equation using GraphPad Prism software version 5.

[1] = 5 ng TrkA, 500 μM ATP, values given as bins, read-out: TrkA inhibition in-vitro IC50
[2] = 5 ng TrkA, 500 μM ATP, values given as bins, read-out: TrkA inhibitory activity in-vitro IC50
[3] = bin with mixed units (lower bound nM, upper bound μM), read-out: TrkA inhibitory activity in-vitro IC50

T1 sequence (P04629 33-796): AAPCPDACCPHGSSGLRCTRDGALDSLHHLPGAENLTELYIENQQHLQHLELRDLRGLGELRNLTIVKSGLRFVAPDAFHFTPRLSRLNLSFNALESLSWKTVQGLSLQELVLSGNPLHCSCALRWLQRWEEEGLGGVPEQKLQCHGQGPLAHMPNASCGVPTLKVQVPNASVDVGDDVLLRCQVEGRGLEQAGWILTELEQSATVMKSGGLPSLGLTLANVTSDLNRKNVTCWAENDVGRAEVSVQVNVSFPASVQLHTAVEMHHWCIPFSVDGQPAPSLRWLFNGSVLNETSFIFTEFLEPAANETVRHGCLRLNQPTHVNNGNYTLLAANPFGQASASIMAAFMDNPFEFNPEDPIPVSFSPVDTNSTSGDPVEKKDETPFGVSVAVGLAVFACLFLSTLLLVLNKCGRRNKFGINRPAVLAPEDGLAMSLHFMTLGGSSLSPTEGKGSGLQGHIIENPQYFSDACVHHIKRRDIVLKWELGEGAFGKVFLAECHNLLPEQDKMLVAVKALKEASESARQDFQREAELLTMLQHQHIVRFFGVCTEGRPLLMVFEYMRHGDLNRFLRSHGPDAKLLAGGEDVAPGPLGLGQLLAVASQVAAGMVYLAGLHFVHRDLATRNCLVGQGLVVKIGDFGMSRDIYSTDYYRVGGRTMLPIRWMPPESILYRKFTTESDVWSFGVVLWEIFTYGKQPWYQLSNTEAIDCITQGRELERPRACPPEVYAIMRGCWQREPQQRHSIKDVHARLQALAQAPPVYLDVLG

Compound	IC50 [1] [nM]	further results
CCN(CCF)S(=O)(=O)NC(=O)c1cnc2ccc(N3CCC[C@@H]3c3cc(F)ccc3F)cn12 [Example 40, (R)-6-(2-(2,5-difluorophenyl)pyrrolidin-1-yl)-N-(N-ethyl-N-(2-fluoroethyl)sulfamoyl)imidazo[1,2-a]pyridine-3-carboxamide]	50 to 100	
O=C(NS(=O)(=O)c1ccc(-n2ccnc2)nc1)c1cnc2ccc(N3CCC[C@@H]3c3cc(F)ccc3F)cn12 [Example 46, (R)-N-((6-(1H-imidazol-1-yl)pyridin-3-yl)sulfonyl)-6-(2-(2,5-difluorophenyl)pyrrolidin-1-yl)imidazo[1,2-a]pyridine-3-carboxamide]	50 to 100	
CCN(C)S(=O)(=O)NC(=O)c1cnc2ccc(N3CCCC3c3cc(F)ccc3O[C@@H]3CCOC3)cn12 (single isomer, unassigned) [Example 64]		IC50 [2]: 1000 to 10000 nM
CCN(C)S(=O)(=O)NC(=O)c1cnc2ccc(N3C[C@@H](F)C[C@@H]3c3cc(F)cc4c3OCCO4)cn12 [Example 68, N-(N-ethyl-N-methylsulfamoyl)-6-((2R,4S)-4-fluoro-2-(7-fluoro-2,3-dihydrobenzo[b][1,4]dioxin-5-yl)pyrrolidin-1-yl)imidazo[1,2-a]pyridine-3-carboxamide]	50 to 100	
CC(C)(C)S(=O)(=O)NC(=O)c1cnc2ccc(N3CCC[C@@H]3c3cc(F)ccc3OC3CCOCC3)cn12 [Example 79, (R)—N-(tert-butylsulfonyl)-6-(2-(5-fluoro-2-((tetrahydro-2H-pyran-4-yl)oxy)phenyl)pyrrolidin-1-yl)imidazo[1,2-a]pyridine-3-carboxamide]	100 to 500	
CC1(S(=O)(=O)NC(=O)c2cnc3ccc(N4CCC[C@@H]4c4cc(F)ccc4F)cn23)CC1 [Example 32, (R)-6-(2-(2,5-difluorophenyl)pyrrolidin-1-yl)-N-((1-methylcyclopropyl)sulfonyl)imidazo[1,2-a]pyridine-3-carboxamide]	50 to 100	
O=C(NC[C@H](O)CO)c1cnc2ccc(N3CCC[C@@H]3c3cc(F)ccc3F)cn12 [Example 25, 6-((R)-2-(2,5-difluorophenyl)pyrrolidin-1-yl)-N—((S)-2,3-dihydroxypropyl)imidazo[1,2-a]pyridine-3-carboxamide]	50 to 100	
O=C(NS(=O)(=O)c1ccc(N2CC[C@H](O)C2)nc1)c1cnc2ccc(N3CCC[C@@H]3c3cc(F)ccc3F)cn12 [Example 33, 6-((R)-2-(2,5-difluorophenyl)pyrrolidin-1-yl)-N-((6-((S)-3-hydroxypyrrolidin-1-yl)pyridin-3-yl)sulfonyl)imidazo[1,2-a]pyridine-3-carboxamide]	100 to 500	
CCOC(=O)CNC(=O)c1cnc2ccc(N3CCC[C@H]3c3cc(F)ccc3F)cn12 (single isomer, unassigned) [Example 18, Ethyl 2-(6-(2-(2,5-difluorophenyl)pyrrolidin-1-yl)imidazo[1,2-a]pyridine-3-carboxamido)acetate]	100 to 500	
O=C(NN1CCCCC1)c1cnc2ccc(N3CCC[C@@H]3c3cc(F)ccc3F)cn12 [Example 27, (R)-6-(2-(2,5-difluorophenyl)pyrrolidin-1-yl)-N-(piperidin-1-yl)imidazo[1,2-a]pyridine-3-carboxamide]		IC50 [3]: 500 to 1000 nM
O=C(NC12CC3CC(CC(O)(C3)C1)C2)c1cnc2ccc(N3CCC[C@@H]3c3cc(F)ccc3F)cn12 [Example 23, 6-((R)-2-(2,5-difluorophenyl)pyrrolidin-1-yl)-N-((1r,3S,5R,7S)-3-hydroxyadamantan-1-yl)imidazo[1,2-a]pyridine-3-carboxamide]		IC50 [3]: 500 to 1000 nM
CCN(C)S(=O)(=O)NC(=O)c1cnc2ccc(N3CCC[C@@H]3c3cc(F)ccc3OC3CCOCC3)cn12 [Example 80, (R)—N—(N-ethyl-N-methylsulfamoyl)-6-(2-(5-fluoro-2-((tetrahydro-2H-pyran-4-yl)oxy)phenyl)pyrrolidin-1-yl)imidazo[1,2-a]pyridine-3-carboxamide]	50 to 100	
CC(C)(C)S(=O)(=O)NC(=O)c1cnc2ccc(N3CCCC3c3cc(F)ccc3O[C@@H]3CCOC3)cn12 (single isomer, unassigned) [Example 66]		IC50 [2]: 1000 to 10000 nM

Continued, in another order:

IC50 [1] [nM]	Compound	further results
≤ 50	O=C(c1cnc2ccc(N3CCCC3c3cc(F)ccc3F)cn12)N1CC[C@H](O)C1 (stereo partly drawn) [Example 3, (6-(2-(2,5-difluorophenyl)pyrrolidin-1-yl)imidazo[1,2-a]pyridin-3-yl)((S)-3-hydroxypyrrolidin-1-yl)methanone]	
≤ 50	CCN(CC)S(=O)(=O)NC(=O)c1cnc2ccc(N3C[C@@H](F)C[C@@H]3c3cc(F)ccc3OC3CCOCC3)cn12 [Example 95, N—(N,N-diethylsulfamoyl)-6-((2R,4S)-4-fluoro-2-(5-fluoro-2-((tetrahydro-2H-pyran-4-yl)oxy)phenyl)pyrrolidin-1-yl)imidazo[1,2-a]pyridine-3-carboxamide]	
≤ 50	CCCN(C)S(=O)(=O)NC(=O)c1cnc2ccc(N3C[C@@H](F)C[C@@H]3c3cc(F)ccc3O[C@@H]3CCOC3)cn12 [Example 101, 6-((2R,4S)-4-fluoro-2-(5-fluoro-2-(((R)-tetrahydrofuran-3-yl)oxy)phenyl)pyrrolidin-1-yl)-N—(N-methyl-N-propylsulfamoyl)imidazo[1,2-a]pyridine-3-carboxamide]	
≤ 50	CCN(C)S(=O)(=O)NC(=O)c1cnc2ccc(N3CCC[C@@H]3c3cc(F)ccc3F)cn12 [Example 34, (R)-6-(2-(2,5-difluorophenyl)pyrrolidin-1-yl)-N-(N-ethyl-N-methylsulfamoyl)imidazo[1,2-a]pyridine-3-carboxamide]	
≤ 50	CN(CC(C)(C)F)S(=O)(=O)NC(=O)c1cnc2ccc(N3CCC[C@@H]3c3cc(F)ccc3F)cn12 [Example 42, (R)-6-(2-(2,5-difluorophenyl)pyrrolidin-1-yl)-N-(N-(2-fluoro-2-methylpropyl)-N-methylsulfamoyl)imidazo[1,2-a] pyridine-3-carboxamide]	
≤ 50	COCCN(C)S(=O)(=O)NC(=O)c1cnc2ccc(N3C[C@@H](F)C[C@@H]3c3cc(F)ccc3O[C@@H]3CCOC3)cn12 [Example 76, 6-((2R,4S)-4-fluoro-2-(5-fluoro-2-(((R)-tetrahydrofuran-3-yl)oxy)phenyl)pyrrolidin-1-yl)-N—(N-(2-methoxyethyl)-N-methylsulfamoyl)imidazo[1,2-a]pyridine-3-carboxamide]	
≤ 50	CN(c1cccnc1)S(=O)(=O)NC(=O)c1cnc2ccc(N3CCC[C@@H]3c3cc(F)ccc3F)cn12 [Example 43, (R)-6-(2-(2,5-difluorophenyl)pyrrolidin-1-yl)-N-(N-methyl-N-(pyridin-3-yl)sulfamoyl)imidazo[1,2-a]pyridine-3-carboxamide]	
≤ 50	CCOCCN(C)S(=O)(=O)NC(=O)c1cnc2ccc(N3CCC[C@@H]3c3cc(F)ccc3OC3CCOCC3)cn12 [Example 83, (R)—N—(N-(2-ethoxyethyl)-N-methylsulfamoyl)-6-(2-(5-fluoro-2-((tetrahydro-2H-pyran-4-yl)oxy)phenyl)pyrrolidin-1-yl)imidazo[1,2-a]pyridine-3-carboxamide]	
≤ 50	CN(c1ccccn1)S(=O)(=O)NC(=O)c1cnc2ccc(N3C[C@@H](F)C[C@@H]3c3cc(F)ccc3O[C@@H]3CCOC3)cn12 [Example 103, 6-((2R,4S)-4-fluoro-2-(5-fluoro-2-(((R)-tetrahydrofuran-3-yl)oxy)phenyl)pyrrolidin-1-yl)-N—(N-methyl-N-(pyridin-2-yl)sulfamoyl)imidazo[1,2-a]pyridine-3-carboxamide]	
≤ 50	CN(C)S(=O)(=O)NC(=O)c1cnc2ccc(N3CCC[C@@H]3c3cc(F)ccc3O[C@@H]3CCOC3)cn12 [Example 106, N—(N,N-dimethylsulfamoyl)-6-((R)-2-(5-fluoro-2-(((R)-tetrahydrofuran-3-yl)oxy)phenyl)pyrrolidin-1-yl)imidazo[1,2-a]pyridine-3-carboxamide]	
≤ 50	CN(c1nccs1)S(=O)(=O)NC(=O)c1cnc2ccc(N3C[C@@H](F)C[C@@H]3c3cc(F)ccc3OC3CCOCC3)cn12 [Example 100, 6-((2R,4S)-4-fluoro-2-(5-fluoro-2-((tetrahydro-2H-pyran-4-yl)oxy)phenyl)pyrrolidin-1-yl)-N—(N-methyl-N-(thiazol-2-yl)sulfamoyl)imidazo[1,2-a]pyridine-3-carboxamide]	
≤ 50	CCCN(C)S(=O)(=O)NC(=O)c1cnc2ccc(N3CCC[C@@H]3c3cc(F)ccc3F)cn12 [Example 37, (R)-6-(2-(2,5-difluorophenyl)pyrrolidin-1-yl)-N-(N-methyl-N-propylsulfamoyl)imidazo[1,2-a]pyridine-3-carboxamide]	
≤ 50	CN(c1nccs1)S(=O)(=O)NC(=O)c1cnc2ccc(N3CCC[C@@H]3c3cc(F)ccc3OC3CCOCC3)cn12 [Example 81, (R)-6-(2-(5-fluoro-2-((tetrahydro-2H-pyran-4-yl)oxy)phenyl)pyrrolidin-1-yl)-N—(N-methyl-N-(thiazol-2-yl)sulfamoyl)imidazo[1,2-a]pyridine-3-carboxamide]	
≤ 50	O=C(c1cnc2ccc(N3CCCC3c3cc(F)ccc3F)cn12)N1CC(O)C1 (single isomer, unassigned) [Example 73, (6-(2-(2,5-difluorophenyl)pyrrolidin-1-yl)imidazo[1,2-a]pyridine-3 yl)(3-hydroxyazetidin-1-yl)methanone]	
